Assay results published in ChEMBL document CHEMBL4392835, “New heteroaryl carbamates: Synthesis and biological screening in vitro and in mammalian cells of wild-type and mutant HIV-protease inhibitors” (Bioorg Med Chem, 2019).
pIC50: −log10 of the molar value. Activity calls are given as the source filed them. The calls are words filed in the database; no cut-off is given here.

Columns and labels:
[1] = target: Protease (Human immunodeficiency virus 1) (UniProt Q9YQ12); experiment: Inhibition of GFP-tagged HIV1 protease transfected in HEK293 cells at 30 uM incubated for 24 hrs by FACS analysis; assay type: cell-based
[2] = target: Protease (Human immunodeficiency virus 1) (UniProt Q9YQ12); experiment: Inhibition of GFP-tagged HIV1 protease transfected in HEK293 cells at 10 uM incubated for 24 hrs by fluorescence microscopy; assay type: cell-based
[3] = Intrinsic clearance in rat liver microsomes assessed per mg protein; assay type: ADME, Microsome; conditions: read-out: CLH
[4] = target: Protease (Human immunodeficiency virus 1) (UniProt Q9YQ12); experiment: Inhibition of GFP-tagged HIV1 protease transfected in HEK293 cells at 30 uM incubated for 24 hrs by fluorescence microscopy; assay type: cell-based
[5] = Cytotoxicity in HEK293 cells assessed as reduction in cell viability after 24 hrs by MTT assay; assay type: cell-based; conditions: human
[6] = target: Protease (Human immunodeficiency virus 1) (UniProt Q9YQ12); experiment: Inhibition of GFP-tagged HIV1 protease transfected in HEK293 cells at 10 to 30 uM incubated for 24 hrs by FACS analysis; assay type: cell-based
[7] = Inhibition of HIV protease assessed as reduction in enzyme-mediated substrate hydrolysis using Abz-Thr-Ile-Nle-Phe(NO2)-Gln-Arg fluorogenic substrate; set-up: species or system Human immunodeficiency virus
[8] = tested on: Protease (Human immunodeficiency virus 1), Q9YQ12 [V32I]; experiment: Inhibition of GFP-tagged HIV1 protease V32I mutant transfected in HEK293 cells at 30 uM incubated for 24 hrs by fluorescence microscopy; assay type: cell-based
[9] = Cytotoxicity in HEK293 cells assessed as reduction in cell viability by MTT assay; assay type: cell-based; conditions: human
[10] = tested on: Protease (Human immunodeficiency virus 1), Q9YQ12 [V82A]; experiment: Inhibition of GFP-tagged HIV1 protease V82A mutant transfected in HEK293 cells at 30 uM incubated for 24 hrs by fluorescence microscopy; assay type: cell-based
[11] = Intrinsic clearance in human liver microsomes assessed per mg protein; assay type: ADME, Microsome; conditions: read-out: CLH
[12] = tested on: Protease (Human immunodeficiency virus 1), Q9YQ12 [V32I]; experiment: Inhibition of GFP-tagged HIV1 protease V32I mutant transfected in HEK293 cells at 10 uM incubated for 24 hrs by fluorescence microscopy; assay type: cell-based
[13] = tested on: Protease (Human immunodeficiency virus 1), Q9YQ12 [V82A]; experiment: Inhibition of GFP-tagged HIV1 protease V82A mutant transfected in HEK293 cells at 10 uM incubated for 24 hrs by fluorescence microscopy; assay type: cell-based
[14] = target: Protease (Human immunodeficiency virus 1) (UniProt Q9YQ12); experiment: Inhibition of GFP-tagged HIV1 protease transfected in HEK293 cells at 10 uM incubated for 24 hrs by FACS analysis; assay type: cell-based

Protease (Human immunodeficiency virus 1), sequence (Q9YQ12 as listed by the source): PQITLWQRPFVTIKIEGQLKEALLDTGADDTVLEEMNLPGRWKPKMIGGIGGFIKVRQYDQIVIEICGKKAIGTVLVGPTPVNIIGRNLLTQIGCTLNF
Protease (Human immunodeficiency virus 1), Q9YQ12 [V32I], sequence (Q9YQ12 entry or part of it V32I): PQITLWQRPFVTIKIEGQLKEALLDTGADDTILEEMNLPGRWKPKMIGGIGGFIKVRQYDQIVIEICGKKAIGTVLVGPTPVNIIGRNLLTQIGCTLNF
Protease (Human immunodeficiency virus 1), Q9YQ12 [V82A], sequence (Q9YQ12 entry or part of it V82A): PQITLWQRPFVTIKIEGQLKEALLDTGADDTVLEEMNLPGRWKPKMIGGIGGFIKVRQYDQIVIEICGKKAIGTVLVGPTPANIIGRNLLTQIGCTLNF

Row | inhibition call (active/not active) [4] | inhibition [6] | pIC50 [7] | SMILES | inhibition [1] | inhibition [2] | microsomal CLint [3] [µL/min/mg] | CC50 at 24 h [5] [µM] | inhibition [8] | CC50 [9] [µM] | inhibition [10] | microsomal CLint [11] [µL/min/mg] | inhibition [12] | inhibition [13] | inhibition [14]
1 | Active | Active | – | CC(C)CN(C[C@@H](O)[C@H](Cc1ccccc1)NC(=O)O[C@H]1CO[C@H]2OCC[C@H]21)S(=O)(=O)c1ccc(N)cc1 | – | – | – | – | – | – | – | – | – | – | –
2 | inactive | inactive | 4.87 | COc1ccc(S(=O)(=O)N(CC(C)C)C[C@@H](O)CNC(=O)Oc2ccc3[nH]ccc3c2)cc1 | – | – | – | > 60 | – | – | – | – | – | – | –
3 | inactive | inactive | 7.97 | COc1ccc(S(=O)(=O)N(CC(C)C)C[C@@H](O)[C@H](Cc2ccccc2)NC(=O)Oc2ccc3sccc3c2)cc1 | – | – | – | > 60 | – | – | – | – | – | – | –
4 | inactive | inactive | 7.31 | COc1ccc(S(=O)(=O)N(CC(C)C)C[C@@H](O)CNC(=O)Oc2ccc3sccc3c2)cc1 | – | – | – | > 60 | – | > 100 | – | – | – | – | –
5 | inactive | inactive | 4.81 | COc1ccc(S(=O)(=O)N(CC(C)C)C[C@@H](O)CNC(=O)Oc2ccc3occc3c2)cc1 | – | – | – | > 60 | – | – | – | – | – | – | –

Row | SMILES | inhibition call (active/not active) [4] | inhibition [6] | pIC50 [7] | inhibition [1] | inhibition [2] | microsomal CLint [3] [µL/min/mg] | CC50 at 24 h [5] [µM] | inhibition [8] | CC50 [9] [µM] | inhibition [10] | microsomal CLint [11] [µL/min/mg] | inhibition [12] | inhibition [13] | inhibition [14]
6 | COc1ccc(S(=O)(=O)N(CC(C)C)C[C@@H](O)[C@H](Cc2ccccc2)NC(=O)Oc2ccc3occc3c2)cc1 | Active | Active | ≥ 9.22 | Active | Active | 26.8 | > 60 | Active | > 100 | Active | 121 | – | – | –
7 | COc1ccc(S(=O)(=O)N(CC(C)C)C[C@@H](O)[C@H](Cc2ccccc2)NC(=O)Oc2ccc3[nH]ccc3c2)cc1 | Active | Active | ≥ 9.22 | – | – | 522 | > 60 | – | 2.8 | – | 548 | Active | Active | Active
